IC50 data for 31 molecules are collected here from US11370763B2, “Compounds and compositions for treating conditions associated with NLRP activity” (Novartis AG, priority 2017, dated 2022).

The test system of one experiment is IL-1β production in PMA-differentiated THP-1 cells. Put plainly: IL-1β production in PMA-differentiated THP-1 cells stimulated with gramicidin (hTHP-1 assay containing 2% fetal bovine serum; Procedures 1-3). In kind it is cell-based, human. To be noted: Homo sapiens, THP-1, hTHP-1 assay containing 2% fetal bovine serum; class symbols; read-out: hTHP-1 IC50 (Average IC50 of compounds in hTHP-1 assay). The procedure, abridged: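 THP-1 cells differentiated with PMA (20 ng/ml, 16-18 h), replated in 2% FBS RPMI (50,000 cells/well), preincubated 1 h with compound (top final 100 μM, 3-fold steps, 0.37% DMSO), then stimulated 2 h with gramicidin (5 μM). Supernatant IL-1β measured by HTRF.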
By IC50 is commonly meant the concentration that inhibits the measured activity by half. With `CC(C)c1cc(F)cc(C(C)C)c1CC(=O)N=S(N)(=O)c1ncc(C(C)(C)O)s1` (stereo not shown) [Example 7, 2-(4-Fluoro-2,6-diisopropylphenyl)-N-(5-(2-hydroxypropan-2-yl)thiazole-2-sulfonimidoyl)acetamide], the IC50 is 200 to 1000 nM. Still for that read-out and setting: the value for `CC(C)c1cc(F)cc(C(C)C)c1CC(=O)N=S(=O)(NC(=O)Cc1c(C(C)C)cc(F)cc1C(C)C)c1ncc(C(C)(C)O)s1` (stereo not shown) [Example 10, N,N-(5-(2-hydroxypropan-2-yl)thiazol-2-ylsulfinyl)bis(2-(4-fluoro-2,6-diisopropylphenyl)acetamide)] was 5000 to 30000 nM; that for `CNS(=O)(=NC(=O)Cc1c(C(C)C)cc(F)cc1C(C)C)c1ncc(C(C)(C)O)s1` (stereo not shown) [Example 11, 2-(4-Fluoro-2,6-diisopropylphenyl)-N-(5-(2-hydroxypropan-2-yl)-N-methylthiazole-2-sulfonimidoyl)acetamide] was 5000 to 30000 nM; that for `CC(C)c1cc(C#N)c(F)c(C(C)C)c1CC(=O)N=S(N)(=O)c1sc(C(C)(C)O)cc1F` (stereo not shown) [Example 14, 2-(4-cyano-3-fluoro-2,6-diisopropylphenyl)-N-(3-fluoro-5-(2-hydroxypropan-2-yl)thiophen-2-ylsulfonimidoyl)acetamide] was 8 to 40 nM.

Take `CC(C)c1cc(F)cc(C2CC2)c1CC(=O)N=S(N)(=O)c1ccc(CN(C)C)cc1` (stereo not shown) [Example 15, 2-(2-cyclopropyl-4-fluoro-6-isopropylphenyl)-N-(4-((dimethylamino)methyl)phenyl-sulfonimidoyl)acetamide]: the IC50 fell in the range of 1000 to 5000 nM. Regarding `CC(C)c1cc(OC(F)F)cc(C(C)C)c1CC(=O)N=S(N)(=O)c1cnc(C(C)(C)O)s1` (stereo not shown) [Example 16, 2-(4-(difluoromethoxy)-2,6-diisopropylphenyl)-N-(2-(2-hydroxypropan-2-yl)thiazol-5-ylsulfonimidoyl)acetamide], the IC50 is 200 to 1000 nM. On the same count and under the same terms, the result for `CC(C)c1cc(F)cc(C(C)C)c1CC(=O)N=S(N)(=O)c1sc(C(C)(C)O)cc1F` (stereo not shown) [Example 17, 2-(4-fluoro-2,6-diisopropylphenyl)-N-(3-fluoro-5-(2-hydroxypropan-2-yl)thiophen-2-ylsulfonimidoyl)acetamide] reads 8 to 40 nM; that for `CC(C)c1cc(F)cc(C2CC2)c1CC(=O)N=S(N)(=O)c1sc(C(C)(C)O)cc1F` (stereo not shown) [Example 18, 2-(2-cyclopropyl-4-fluoro-6-isopropylphenyl)-N-(3-fluoro-5-(2-hydroxypropan-2-yl)thiophen-2-ylsulfonimidoyl)acetamide], 40 to 200 nM. As to `CC(C)c1c(F)c(C#N)cc(C2CC2)c1CC(=O)N=S(N)(=O)c1sc(C(C)(C)O)cc1F` (stereo not shown) [Example 19, 2-(4-cyano-6-cyclopropyl-3-fluoro-2-isopropylphenyl)-N-(3-fluoro-5-(2-hydroxypropan-2-yl)thiophen-2-ylsulfonimidoyl)acetamide], the 50% inhibitory concentration (IC50) was 8 to 40 nM. With `CC(C)c1cc(Cl)c(F)c(C2CC2)c1CC(=O)N=S(N)(=O)c1sc(C(C)(C)O)cc1F` (stereo not shown) [Example 20, 2-(4-chloro-2-cyclopropyl-3-fluoro-6-isopropylphenyl)-N-(3-fluoro-5-(2-hydroxypropan-2-yl)thiophen-2-ylsulfonimidoyl)acetamide], the IC50 was 200 to 1000 nM. The same measure, in the same setting: the result for `CC(C)c1cc(OC(F)F)cc(C(C)C)c1CC(=O)N=S(N)(=O)c1sc(C(C)(C)O)cc1F` (stereo not shown) [Example 21, 2-(4-(difluoromethoxy)-2,6-diisopropylphenyl)-N-(3-fluoro-5-(2-hydroxypropan-2-yl)thiophen-2-ylsulfonimidoyl)acetamide] reads 40 to 200 nM. With `CC(C)c1cc(C#N)cc(C(C)C)c1CC(=O)N=S(N)(=O)c1sc(C(C)(C)O)nc1CO` (stereo not shown) [Example 22, 2-(4-cyano-2,6-diisopropylphenyl)-N-(4-(hydroxymethyl)-2-(2-hydroxypropan-2-yl)thiazol-5-ylsulfonimidoyl)acetamide], the IC50 was in the range of 200 to 1000 nM. Same read-out and setting: the value for `CC(C)(O)c1nc(CO)c(S(N)(=O)=NC(=O)Cc2c3c(cc4c2CCC4)CCC3)s1` (stereo not shown) [Example 23, 2-(1,2,3,5,6,7-hexahydros-indacen-4-yl)-N-(4-(hydroxymethyl)-2-(2-hydroxypropan-2-yl)thiazol-5-ylsulfonimidoyl)acetamide] was 1000 to 5000 nM; that for `COCc1cc(C(C)C)c(CC(=O)N=S(N)(=O)c2sc(C(C)(C)O)nc2CO)c(C(C)C)c1` (stereo not shown) [Example 24, 2-(2,6-diisopropyl-4-(methoxymethyl)phenyl)-N-(4-(hydroxymethyl)-2-(2-hydroxypropan-2-yl)thiazole-5-sulfonimidoyl)acetamide] was 200 to 1000 nM. On the same count and under the same terms, the value for `CC(C)c1cc(C#N)cc(C2CC2)c1CC(=O)N=S(N)(=O)c1sc(C(C)(C)O)nc1CO` (stereo not shown) [Example 25, 2-(4-cyano-2-cyclopropyl-6-isopropylphenyl)-N-(4-(hydroxymethyl)-2-(2-hydroxypropan-2-yl)thiazole-5-sulfonimidoyl)acetamide] was 1000 to 5000 nM.

Consider `Cc1cc(CN(C)C)ccc1S(N)(=O)=NC(=O)Cc1c(C(C)C)cc(OC(F)F)cc1C1CC1` (stereo not shown) [Example 26, 2-(2-cyclopropyl-4-(difluoromethoxy)-6-isopropylphenyl)-N-(4-((dimethylamino)methyl)-2-methylphenylsulfonimidoyl) acetamide], for which the IC50 fell in the range of 1000 to 5000 nM.

On to `CC(C)c1cc(OC(F)F)cc(C(C)C)c1CC(=O)N=S(N)(=O)c1ccc(CN(C)C)cc1` (stereo not shown) [Example 27, 2-(4-(difluoromethoxy)-2,6-diisopropylphenyl)-N-(4-((dimethylamino)methyl)phenyl-sulfonimidoyl)acetamide], for which the half-inhibitory concentration (IC50) fell in the range of 1000 to 5000 nM. `CC(C)c1cc(C#N)cc(C(C)C)c1CC(=O)N=S(N)(=O)c1ccc(CN(C)C)cc1` (stereo not shown) [Example 28, 2-(4-cyano-2,6-diisopropylphenyl)-N-(4-((dimethylamino)methyl)phenyl-sulfonimidoyl)acetamide]: the IC50 lay in the range of 1000 to 5000 nM.

For the molecule `CC(C)c1cc(C#N)cc(C2CC2)c1CC(=O)N=S(N)(=O)c1ccc(CN(C)C)cc1` (stereo not shown) [Example 29, 2-(4-cyano-2-cyclopropyl-6-isopropylphenyl)-N-(4-((dimethylamino)methyl)phenyl-sulfonimidoyl)acetamide], the half-maximal inhibitory concentration (IC50) is 5000 to 30000 nM.

On to `CCc1cc(C#N)cc(C(C)C)c1CC(=O)N=S(N)(=O)c1ccc(CN(C)C)cc1` (stereo not shown) [Example 30, 2-(4-cyano-2-ethyl-6-isopropylphenyl)-N-(4-((dimethylamino)methyl)phenyl-sulfonimidoyl)acetamide], for which the concentration for half-maximal inhibition (IC50) lay in the range of 5000 to 30000 nM. As to `CC(C)c1cc(F)cc(C2CC2)c1CC(=O)N=S(N)(=O)c1ccc(CN(C)C)cc1F` (stereo not shown) [Example 31, 2-(2-cyclopropyl-4-fluoro-6-isopropylphenyl)-N-(4-((dimethylamino)methyl)-2-fluorophenylsulfonimidoyl) acetamide], the half-inhibitory concentration (IC50) lay within 1000 to 5000 nM.

For the molecule `CC(C)c1cc(C#N)cc(C2CC2)c1CC(=O)N=S(N)(=O)c1ccc(CN(C)C)cc1F` (stereo not shown) [Example 32, 2-(4-cyano-2-cyclopropyl-6-isopropylphenyl)-N-(4-((dimethylamino)methyl)-2-fluorophenylsulfonimidoyl) acetamide], the IC50 lay within 5000 to 30000 nM.

Turning to `CC(C)c1cc(C(F)F)cc(C(C)C)c1CC(=O)N=S(N)(=O)c1ccc(C(C)(C)O)cc1F` (stereo not shown) [Example 33, 2-(4-(difluoromethyl)-2,6-diisopropylphenyl)-N-(2-fluoro-4-(2-hydroxypropan-2-yl)phenylsulfonimidoyl)acetamide], the IC50 fell in the range of 200 to 1000 nM. On the same count and under the same terms, the result for `CC(C)c1cc(C#N)cc(C(C)C)c1CC(=O)N=S(N)(=O)c1ccc(C(C)(C)O)cc1Cl` (stereo not shown) [Example 34, N-(2-chloro-4-(2-hydroxypropan-2-yl)phenylsulfonimidoyl)-2-(4-cyano-2,6-diisopropylphenyl)acetamide] reads 1000 to 5000 nM. In the case of `CC(C)c1cc(C(F)F)cc(C(C)C)c1CC(=O)N=S(N)(=O)c1ccc(CN(C)C)cc1F` (stereo not shown) [Example 35, 2-(4-(difluoromethyl)-2,6-diisopropylphenyl)-N-(4-((dimethylamino)methyl)-2-fluorophenylsulfonimidoyl) acetamide], the 50% inhibitory concentration (IC50) was 200 to 1000 nM. For the molecule `CCc1cc(OC(F)F)cc(C(C)C)c1CC(=O)N=S(N)(=O)c1sc(C(C)(C)O)cc1F` (stereo not shown) [Example 36, 2-(4-(difluoromethoxy)-2-ethyl-6-isopropylphenyl)-N-(3-fluoro-5-(2-hydroxypropan-2-yl)thiophene-2-sulfonimidoyl)acetamide], the half-inhibitory concentration (IC50) lay within 200 to 1000 nM. On the same count and under the same terms, the value for `CC(C)c1cc(C(F)F)cc(C(C)C)c1CC(=O)N=S(N)(=O)c1sc(C(C)(C)O)cc1F` (stereo not shown) [Example 37, 2-(4-(difluoromethyl)-2,6-diisopropylphenyl)-N-(3-fluoro-5-(2-hydroxypropan-2-yl)thiophene-2-sulfonimidoyl)acetamide] was 40 to 200 nM; that for `CC(C)c1cc(C#N)cc(C(C)C)c1CC(=O)N=S(N)(=O)c1ncc(C(C)(C)O)s1` (stereo not shown) [Example 38, 2-(4-cyano-2,6-diisopropylphenyl)-N-(5-(2-hydroxypropan-2-yl)thiazole-2-sulfonimidoyl)acetamide] was 200 to 1000 nM; that for `Cc1nc(C(C)(C)O)sc1S(N)(=O)=NC(=O)Cc1c(C(C)C)cc(OC(F)F)cc1C(C)C` (stereo not shown) [Example 39, 2-(4-(difluoromethoxy)-2,6-diisopropylphenyl)-N-(2-(2-hydroxypropan-2-yl)-4-methylthiazole-5-sulfonimidoyl)acetamide] was 200 to 1000 nM. Same read-out and setting: the result for `Cc1nc(C(C)(C)O)sc1S(N)(=O)=NC(=O)Cc1c(C(C)C)cc(C#N)cc1C(C)C` (stereo not shown) [Example 40, 2-(4-cyano-2,6-diisopropylphenyl)-N-(2-(2-hydroxypropan-2-yl)-4-methylthiazole-5-sulfonimidoyl)acetamide] reads 200 to 1000 nM.

The same experiment, now with this note: Homo sapiens, THP-1, hTHP-1 assay containing 2% fetal bovine serum; given as numeric bound; read-out: hTHP-1 IC50 (Average IC50 of compounds in hTHP-1 assay).
For the molecule `CNS(=O)(=NC(=O)Cc1c2c(cc3c1CCC3)CCC2)c1ncc(C(C)(C)O)s1` (stereo not shown) [Example 12, 2-(1,2,3,5,6,7-Hexahydro-s-indacen-4-yl)-N-(5-(2-hydroxypropan-2-yl)-N-methylthiazole-2-sulfonimidoyl)acetamide], the 50% inhibitory concentration (IC50) is more than 30000 nM.
